Measurements published in publication PMC5716993, “The interdomain flexible linker of the polypeptide GalNAc transferases dictates their long-range glycosylation preferences” (Nature Communications, 2017).

Target: T1, GalNAc-T4 (Homo sapiens, UniProt Q8N4A0)
T1 construct: amino acid residues 36–578 of the human GalNAc-T4; histidine tag (C); made in house; host or cells: Pichia pastoris SMD1168 (pPICZαA, secreted)
Assay: STD-NMR binding / epitope mapping
Conditions: normalized to the highest STD response; 298 K, pH 7.4, UDP, MnCl2; in words
Description: All NMR experiments were recorded on a Bruker Avance 600 MHz spectrometer equipped with a triple channel cryoprobe head. The^1H NMR resonances of the peptides 1–3 were completely assigned through standard 2D-TOCSY (30 and 80 ms mixing time) and 2D-NOESY experiments (400 ms mixing time). Solution conditions used for the NMR characterization studies were 1–3 mM (glyco)peptide, 25 mM perdeuterated tris-d11 in 90:10 H2O/D2O, 7.5 mM NaCl, and 1 mM DTT, uncorrected pH 7.4. The assignments were accomplished either at 278 or 298 K. The resonance of 2,2,3,3-tetradeutero-3-trimethylsilylpropionic acid (TSP) was used as a chemical shift reference in the^1H NMR experiments (δ TSP = 0 ppm). Peak lists for the 2D-TOCSY and 2D-NOESY spectra were generated by interactive peak picking using the computer aided resonance assignment (CARA) software.
Samples for STD experiments were prepared in perdeuterated 25 mM TRIS-d11 in deuterated water, 7.5 mM NaCl, and 1 mM DTT, uncorrected pH 7.4. STD-NMR experiments were performed at 298 K in the presence of 75 μM UDP, 75 μM MnCl2 with ~880 μM peptide (or GalNAc-O-Me) and 13.5 μM GalNAc-T4 giving a molar ratio of 65:1 peptide:GalNAc-T4.
The STD-NMR spectra were acquired with 1920 transients in a matrix with 64 k data points in t2 in a spectral window of 12335.53 Hz centered at 2819.65 Hz. An excitation sculpting module with gradients was employed to suppress the water proton signals. Selective saturation of the protein resonances (on resonance spectrum) was performed by irradiating at −1 ppm using a series of Eburp2.1000-shaped 90° pulses (50 ms, 1 ms delay between pulses) for a total saturation time of 2.0 s. For the reference spectrum (off resonance), the samples were irradiated at 100 ppm. Proper control experiments were performed with the ligands in the presence and absence of the protein in order to optimize the frequency for protein saturation (−1 ppm) and to ensure that the ligand signals were not affected. […] This nonspecific saturation was taken into account, by subtraction, when quantifying the STD-NMR data in the presence of the transferase. As well, a blank STD experiment with only the protein was also recorded. The substraction of this protein STD spectrum allowed eliminating the signal background of the protein. In all cases, to accomplish the STD-NMR-derived epitope mapping of each ligand, the STD-NMR total intensities were normalized with respect to the highest STD-NMR response. For Fig. 2b and Supplementary Fig. 1, the STD response of each amino acid corresponds to the average of STD percentages of all amino acid proton resonances that were measured with sufficient accuracy. The signal of the anomeric proton of as well as, the Hα protons of the Ala amino acids of glycopeptides could not be analyzed in the STD-NMR spectra due to their close proximity to the HDO resonance. Proton resonances, from Gly and Pro, appear in the same chemical shift region of the spectrum and were not discriminated.

T1 sequence (Q8N4A0 36-578): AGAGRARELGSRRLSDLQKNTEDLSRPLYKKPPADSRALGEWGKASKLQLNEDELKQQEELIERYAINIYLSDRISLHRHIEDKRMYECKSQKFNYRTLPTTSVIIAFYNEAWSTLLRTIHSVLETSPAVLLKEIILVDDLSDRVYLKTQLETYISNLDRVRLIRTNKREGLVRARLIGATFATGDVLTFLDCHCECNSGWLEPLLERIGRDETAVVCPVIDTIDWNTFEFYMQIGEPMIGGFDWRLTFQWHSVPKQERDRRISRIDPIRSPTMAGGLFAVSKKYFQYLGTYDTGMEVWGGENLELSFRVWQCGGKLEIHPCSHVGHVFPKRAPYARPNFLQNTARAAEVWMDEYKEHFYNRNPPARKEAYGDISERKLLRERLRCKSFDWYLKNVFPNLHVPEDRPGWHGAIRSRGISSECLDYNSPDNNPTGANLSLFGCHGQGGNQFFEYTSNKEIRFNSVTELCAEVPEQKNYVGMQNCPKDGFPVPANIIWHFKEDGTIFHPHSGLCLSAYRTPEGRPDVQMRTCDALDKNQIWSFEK

Question: With `CO[C@H]1O[C@H](CO)[C@H](O)[C@H](O)[C@H]1NC(C)=O` [α-methyl-GalNAc, reference compound] as the molecule, how does the “STD-NMR-derived epitope mapping of GalNAc moiety” value read?
Answer: The value was “the highest STD response corresponded to the H2 proton of the GalNAc moiety followed by a modest STD of protons H4, H3, and N-acetyl group”.
